{"source": "patent EP0479888B1", "about": "“IMPROVED BUILDER-CONTAINING AQUEOUS CLEANER/DEGREASER MICROEMULSION COMPOSITIONS” (BUCKEYE INTERNATIONAL, INC., priority 1989, dated 1991)", "conditions": "water", "data": [{"smiles": "CCCCOC(C)=O", "note": "[n-butyl acetate]", "values": [{"measurement": "aqueous ambient temperature solubility", "value": 0.7, "unit": "wt.%"}]}]}
